Assay results taken from ChEMBL document CHEMBL2429721, “Novel 2,6-bis(4-methoxyphenyl)-1-methylpiperidin-4-one oxime esters: synthesis and a new insight into their antioxidant and antimicrobial potential” (Med Chem Res, 2013).

Legend:
Type in all cases: functional
Staphylococcus aureus [1] = assay: Antibacterial activity against Staphylococcus aureus ATCC 25923 assessed as growth inhibition at 500 ug/mL after 24 hrs by agar well plate method; details: ATCC 25923, 24 h, read-out: DIZ
Aspergillus flavus [2] = assay: Antifungal activity against Aspergillus flavus MTCC 3306 assessed as growth inhibition at 500 ug/mL after 72 hrs by agar well plate method; details: MTCC 3306, 72 h, read-out: DIZ
[3] = Antifungal activity against Chrysosporium keratinophilum MTCC 2827 assessed as growth inhibition at 500 ug/mL after 72 hrs by agar well plate method
Staphylococcus aureus [4] = assay: Antibacterial activity against Staphylococcus aureus ATCC 25923 assessed as growth inhibition at 1000 ug/mL after 24 hrs by agar well plate method; details: ATCC 25923, 24 h, read-out: DIZ
Escherichia coli [5] = assay: Antibacterial activity against Escherichia coli ATCC 25922 assessed as growth inhibition at 1000 ug/mL after 24 hrs by agar well plate method; details: ATCC 25922, 24 h, read-out: DIZ
Pseudomonas aeruginosa [6] = assay: Antibacterial activity against Pseudomonas aeruginosa ATCC 27853 assessed as growth inhibition at 500 ug/mL after 24 hrs by agar well plate method; details: ATCC 27853, 24 h, read-out: DIZ
Pseudomonas aeruginosa [7] = assay: Antibacterial activity against Pseudomonas aeruginosa ATCC 27853 assessed as growth inhibition at 1000 ug/mL after 24 hrs by agar well plate method; details: ATCC 27853, 24 h, read-out: DIZ
Candida albicans [8] = assay: Antifungal activity against Candida albicans MTCC 3017 assessed as growth inhibition at 1000 ug/mL after 72 hrs by agar well plate method; details: MTCC 3017, 72 h, read-out: DIZ
[9] = test system: Radical scavenging activity; assay: Antioxidant activity assessed as DPPH free radical scavenging activity after 20 mins by UV-visible spectrophotometric analysis
Candida albicans [10] = assay: Antifungal activity against Candida albicans MTCC 3017 assessed as growth inhibition at 500 ug/mL after 72 hrs by agar well plate method; details: MTCC 3017, 72 h, read-out: DIZ
[11] = Antifungal activity against Chrysosporium keratinophilum MTCC 2827 assessed as growth inhibition at 1000 ug/mL after 72 hrs by agar well plate method
Escherichia coli [12] = assay: Antibacterial activity against Escherichia coli ATCC 25922 assessed as growth inhibition at 500 ug/mL after 24 hrs by agar well plate method; details: ATCC 25922, 24 h, read-out: DIZ
[13] = Antioxidant activity assessed as ferric ion reducing activity at 10 uM after 20 mins by FRAP assay
[14] = Antioxidant activity assessed as ABTS free radical scavenging activity after 30 mins
Aspergillus flavus [15] = assay: Antifungal activity against Aspergillus flavus MTCC 3306 assessed as growth inhibition at 1000 ug/mL after 72 hrs by agar well plate method; details: MTCC 3306, 72 h, read-out: DIZ
[16] = Antioxidant activity assessed as cupric ion reducing activity at 10 uM after 30 mins by CUPRAC assay

| Structure (SMILES) | zone of inhibition at 500 µg/mL (Staphylococcus aureus [1]) [mm] | zone of inhibition at 500 µg/mL (Aspergillus flavus [2]) [mm] | inhibition zone (IZ) [3] [mm] | zone of inhibition at 1000 µg/mL (Staphylococcus aureus [4]) [mm] | zone of inhibition at 1000 µg/mL (Escherichia coli [5]) [mm] | zone of inhibition at 500 µg/mL (Pseudomonas aeruginosa [6]) [mm] | zone of inhibition at 1000 µg/mL (Pseudomonas aeruginosa [7]) [mm] | zone of inhibition at 1000 µg/mL (Candida albicans [8]) [mm] | IC50 [9] [µM] | zone of inhibition at 500 µg/mL (Candida albicans [10]) [mm] | inhibition zone (IZ) [11] [mm] | zone of inhibition at 500 µg/mL (Escherichia coli [12]) [mm] | Activity [13] | IC50 [14] [µM] | zone of inhibition at 1000 µg/mL (Aspergillus flavus [15]) [mm] | Activity [16] |
| --- | --- | --- | --- | --- | --- | --- | --- | --- | --- | --- | --- | --- | --- | --- | --- | --- |
| COc1ccc(C2CC(=NOC(=O)c3ccc(O)cc3)CC(c3ccc(OC)cc3)N2C)cc1 (stereo not drawn) | 3 | 1 | 1 | 5 | 4 | 2 | 3 | 2 | 15 | 2 | 2 | 3 | 0.333 | 25 | 0 | 0.293 |
| COc1ccc(C2CC(=NOC(=O)c3ccc(Br)cc3)CC(c3ccc(OC)cc3)N2C)cc1 (stereo not drawn) | 6 | 4 | 4 | 8 | 10 | 7 | 9 | 9 | 92 | 8 | 6 | 6 | 0.265 | 121 | 5 | 0.215 |
| COc1ccc(C2CC(=NOC(=O)c3cc(OC)c(OC)c(OC)c3)CC(c3ccc(OC)cc3)N2C)cc1 (stereo not drawn) | 3 | 3 | 2 | 5 | 4 | 3 | 5 | 3 | 71 | 3 | 5 | 3 | 0.286 | 93 | 2 | 0.232 |
| COc1ccc(C2CC(=NOC(=O)c3ccc(OC)cc3OC)CC(c3ccc(OC)cc3)N2C)cc1 (stereo not drawn) | 2 | 3 | 3 | 4 | 5 | 6 | 6 | 6 | 56 | 4 | 4 | 3 | 0.296 | 80 | 4 | 0.236 |
| COc1ccc(C2CC(=NOC(=O)c3cc([N+](=O)[O-])cc([N+](=O)[O-])c3)CC(c3ccc(OC)cc3)N2C)cc1 (stereo not drawn) | 3 | 3 | 5 | 6 | 9 | 6 | 9 | 8 | 125 | 3 | 5 | 4 | 0.195 | 312 | 4 | 0.145 |
| COc1ccc(C2CC(=NOC(=O)c3cc(O)c(O)c(O)c3)CC(c3ccc(OC)cc3)N2C)cc1 (stereo not drawn) | 3 | 1 | 2 | 5 | 6 | 3 | 4 | 8 | 11 | 6 | 3 | 4 | 0.373 | 18 | 3 | 0.361 |
| CN[C@@H]1[C@H](O[C@H]2[C@H](O[C@H]3[C@H](O)[C@@H](O)[C@H](N=C(N)N)[C@@H](O)[C@@H]3N=C(N)N)O[C@@H](C)[C@]2(O)C=O)O[C@@H](CO)[C@H](O)[C@H]1O [STREPTOMYCIN] | 10 | – | – | 15 | 16 | 13 | 16 | – | – | – | – | 10 | – | – | – | – |
| OC(Cn1cncn1)(Cn1cncn1)c1ccc(F)cc1F [FLUCONAZOLE] | – | 11 | 15 | – | – | – | – | 22 | – | 20 | 17 | – | – | – | 13 | – |
